The subject of data set [1] is Human primary melanocytes. Briefly: Melanin content assay (melanin synthesis inhibition). It counts as cell-based. The conditions noted are these: Melanocyte, 72 hours treatment. As for the experimental part: Human primary melanocytes (Cascade Biologics, now ThermoFisher Scientific) were grown in melanocytes growth medium (MGM) with human melanocyte growth supplement (both media components from ThermoFisher Scientific). Melanocytes were seeded at 5×10^4 cells/well in 24 well-plates and incubated in a humidified incubator at 37° C. with 5% CO2 atmosphere. After 24 hours of incubation, cell cultures were treated with the GAP amino acids or 12- hydroxystearic acid, alone or in combination. The vehicle control consisted of cells treated with the vehicle GAP (0.002 mM NaOH), and/or additional test reagent vehicle, . After treatment, cells were again incubated for 72 hours in a humidified incubator at 37° C. with 5% CO2 atmosphere. At the end of the 72 hour incubation, the culture medium was replaced with 120 uL/well of melanin content assay reagent (10% DMSO in 1M sodium hydroxide) and incubated for 1 hour at 60° C. in a shaker incubator. The supernatant was then transferred to a 384 well plate. The absorbance was measured by spectrophotometric analysis at 405 nm with a micro plate reader (GEnios Pro, Tecan).
The spectrophotometric optical density at 405 nm for untreated cells (no active) was considered as 100% melanin content. Relative melanin content for treated samples was calculated with normalization based on the untreated (media/vehicle) control.

The subject of data set [2] is Human Keratinocytes. Nature of the data set: Glutathione assay (total glutathione after menadione challenge). It counts as cell-based. The protocol: Human Keratinocytes (Promocell, Heidelberg, Germany) were maintained in EpiLife® medium containing 60 uM calcium chloride and 1% Human Keratinocyte Growth Supplement (both media components from ThermoFisher Scientific) in a humidified incubator with an atmosphere containing 5% CO2 at 37° C. The medium was refreshed every 2-3 days. Subsequently, cells were trypsinized at 90% confluency and seeded at a density of 1×10^4 per well into 96-well plates with white wall and clear bottom. One or two days after seeding, cell medium was replaced with Hank's Balanced Salt Solution (HBSS), and keratinocytes were pre-treated with GAP (or 0.12-0.240 mM sodium hydroxide vehicle control, pH 7.5) alone or in combination with additional test reagents described above or L-cystine esters alone for 1-2 hours. The concentration of all amino acids constituting the GAP mixture used in this assay are designated in the data tables, and fully described in the abbreviations list below.
After one or two hours of pre-treatment with GAP or additional test reagents, alone or in combination, keratinocytes were then challenged with 25 uM menadione (Sigma-Aldrich), a known inducer of oxidative stress. After 18-20 hours, cells were harvested and analyzed for total glutathione levels using a commercially available kit (GSH-GSSG GLo Assay, Promega), a luminescence-based system for the detection and quantification of total glutathione in cultured cells. In summary, after cell treatment, the media was removed and replaced with a cell lysis reagent for 5 minutes at 20-25° C.; note, all remaining steps were also conducted at 20-25° C. Next, a luciferase generation reagent was added to each well and incubated for 30 minutes. Following this step, a luciferin detection reagent was added to each well and plates were incubated for 15 minutes. Finally, plates were then read for luminescence in a FlexStation 3 plate reader (Molecular Devices). Total glutathione levels were calculated after interpolation of glutathione concentrations from a standard curve. Experimental conditions were typically conducted in at least triplicate determinations. Statistical significance was calculated using 1-way ANOVA. Percent protection was calculated by using the calculated glutathione levels from each experiment in the following equation: […]

The subject of data set [3] is Human Keratinocytes. Nature of the data set: Reactive Oxygen Species (ROS) assay. It counts as cell-based. As to conditions: 18 hours; for activity at 20 µM / activity at 40 µM / activity at 80 µM / activity at 160 µM: Homo sapiens, Keratinocyte, read-out: ROS inhibition (% of vehicle control); for activity at 20 µM / ROS % Protection (improvement vs. vehicle control + menadione): 20 uM + menadione; for activity at 40 µM: 40 uM + menadione; for activity at 80 µM: 80 uM + menadione; for activity at 160 µM: 160 uM + menadione. As for the experimental part: Human Keratinocytes (Promocell, Heidelberg, Germany) were maintained in EpiLife® keratinocyte medium containing 60 uM calcium chloride and 1% Human Keratinocyte Growth Supplement (HKGS) in a humidified incubator with an atmosphere containing 5% CO2 at 37° C. The medium was refreshed every other day. Subsequently, cells were trypsinized at 90% confluency and seeded at a density of 1-2×10^4 per well into 96-well plates with black wall and clear bottom. On the second day after seeding, cell medium was replaced with Hank's Balanced Salt Solution (HBSS) with or without menadione (10-25 uM), GAP, GAP vehicle (0.2 mM NaOH, pH 7.5), above-described additional test reagents, or combinations of GAP with additional test reagents or L-cystine esters alone, and incubated for additional 18 hours. For ROS detection, CellROX green (Life Tech, Thermo Fisher Scientific, Rockford, USA) reagent was added into each well to a final concentration of 15-25 uM and incubated for additional 2-4 hours at 37° C. in a humidified incubator. The ROS fluorescence was detected using a Tecan microplate reader (Excitation/Emission=490/525). Relative ROS production was calculated with normalization based on the vehicle control treatment which was set to 100%. Where indicated, percent protection was calculated as a comparison to menadione alone treatment, using the measured relative fluorescent units in the following equation: […]
ROS levels were evaluated together with cell viability because it is possible to get a false negative for ROS if treatment is so toxic, that at the time of assay, cells are dead (and there are no longer any detectable ROS). Decrease in ROS levels is meaningful if cells are still viable.

Data set [4] concerns Human Keratinocytes. Briefly: Cell viability assay (CCK-8). The format is cell-based. The conditions noted are these: 18 hours; for viability at 20 µM / viability at 40 µM / viability at 80 µM / viability at 160 µM: Homo sapiens, Keratinocyte, read-out: Cell viability (% of vehicle control); for viability at 160 µM: 160 uM + menadione. As for the experimental part: Human Keratinocytes (Promocell, Heidelberg, Germany) were maintained in EpiLife® keratinocyte medium containing 60 uM calcium chloride and 1% Human Keratinocyte Growth Supplement (HKGS). The medium was refreshed every other day. Subsequently, cells were trypsinized at 90% confluency and seeded at a density of 2×10^4 per well into 96-well transparent tissue culture plates. On the second day after seeding, cell medium was replaced with treatments as described above in ROS assay section. After 18 hours, […] (CCK-8) reagent (Dojindo, Kumamoto, Japan) was diluted 1:10 in HBSS and incubated with cells for 4 h at 37° C. in a humidified incubator. Optical absorption at 450 nm was measured using a Tecan Safire2 plate reader. Relative viability was calculated with normalization based on the vehicle control treatment, which was set to 100%.
Where indicated, percent protection was calculated as a comparison to menadione alone treatment, using the measured relative absorbance units in the following equation: […]

The conditions of data set [5]: pH less than 2 or pH above 8; cited from earlier work.

As to `CCCCCCC(O)CCCCCCCCCCC(=O)O` (stereo not shown) [12-Hydroxystearic Acid, 12-hydroxystearic acid], in data set [1] (12-Hydroxystearic Acid 4 uM, alone or with GAP), the inhibition (usually the share of the control response that was lost under treatment) at 4 µM stood at 7%. Also, in data set [1] (12-Hydroxystearic Acid 8 uM, alone or with GAP), the inhibition at 8 µM came out at 10%.
Turning to `COC(=O)[C@@H](N)CSSC[C@H](N)C(=O)OC.Cl.Cl` [CDME, L-Cystine dimethyl ester dihydrochloride], in the data set with Human Keratinocytes [2] (80 uM + menadione), the “Glutathione Synthesis, % Protection (improvement vs. vehicle control + menadione)” value (“Glutathione Synthesis, % Protection” below) was 31^1,2%. In addition, in the data set with Human Keratinocytes [3], the activity at 20 µM amounted to 108%, the activity at 40 µM came to 111%, the activity at 80 µM stood at 114% and the activity at 160 µM came out at 97.9%. Moreover, in the data set with Human Keratinocytes [4] (20 uM + menadione), the viability (as a rule, a read-out of living cells in per cent, often relative to untreated cells) at 20 µM was found to be 90.9%. For the same compound, the viability at 40 µM in the data set with Human Keratinocytes [4] (40 uM + menadione) worked out at 93.1%. The viability at 80 µM in the data set on Human Keratinocytes [4] (80 uM + menadione) amounted to 87%. Besides, the viability at 160 µM with Human Keratinocytes [4] is 106%.
For the compound `CCOC(=O)[C@@H](N)CSSC[C@H](N)C(=O)OCC.Cl.Cl` [DEC, Diethyl L-cystinate dihydrochloride], in the data set with Human Keratinocytes [2] (40 uM + menadione), the “Glutathione Synthesis, % Protection” value is 13^1,2% and the “Glutathione Synthesis, Mean (μm glutathione)” value (“Glutathione Synthesis, Mean” below) is on record as 0.54^1,2 μm. In the data set with Human Keratinocytes [3], the “ROS % Protection (improvement vs. vehicle control + menadione)” value was 38.0^1,2%, the activity at 20 µM was 233%, the activity at 40 µM came to 212% and the activity at 80 µM was 234%. In addition, the activity at 160 µM in the data set on Human Keratinocytes [3] turned out to be 254%. In addition, the viability at 20 µM in the data set on Human Keratinocytes [4] (20 uM + menadione) turned out to be 110%. The viability at 40 µM with Human Keratinocytes [4] (40 uM + menadione) worked out at 127%. Besides, the viability at 80 µM in the data set on Human Keratinocytes [4] (80 uM + menadione) was 132%. The viability at 160 µM with Human Keratinocytes [4] came out at 122%.
With `CC(C)(C)OC(=O)[C@@H](N)CSSC[C@H](N)C(=O)OC(C)(C)C.Cl.Cl` [DTBC, Ditert-butyl L-cystinate dihydrochloride], in the data set with Human Keratinocytes [2] (40 uM + menadione), the “Glutathione Synthesis, % Protection” value was 0^1% and the “Glutathione Synthesis, Mean” value is reported as 0.17^1 μm. In the data set on Human Keratinocytes [2] (80 uM + menadione), the “Glutathione Synthesis, % Protection” value is 1^1% and the “Glutathione Synthesis, Mean” value is on record as 0.19^1 μm. Besides, in the data set with Human Keratinocytes [3], the “ROS % Protection (improvement vs. vehicle control + menadione)” value is given as 2.2%, the activity at 20 µM is 367%, the activity at 40 µM was 324% and the activity at 80 µM worked out at 269%. In addition, in the data set with Human Keratinocytes [3], the activity at 160 µM is 221%. Moreover, in the data set on Human Keratinocytes [4] (20 uM + menadione), the “Cell viability % protection (improvement vs. vehicle control + menadione)” value (“Cell viability % protection” for short) is given as 6.0^1% and the viability at 20 µM stood at 78.1%. Also, in the data set on Human Keratinocytes [4] (40 uM + menadione), the “Cell viability % protection” value is listed as 3.0^1% and the viability at 40 µM was 75.9%. For the same compound, in the data set with Human Keratinocytes [4] (80 uM + menadione), the “Cell viability % protection” value is −0.1^1% and the viability at 80 µM amounted to 73.6%. The viability at 160 µM in the data set on Human Keratinocytes [4] is 104%.
On to `CCCCCCc1ccc(O)cc1O` [HR, 4-hexylresorcinol, reference compound], for which the inhibition at 10 µM in data set [1] (10 uM) was 39%.
On to `N[C@@H](CSSC[C@H](N)C(=O)O)C(=O)O` [cystine], for which the “solubility in aqueous solutions” value in data set [5] is “more soluble”.
